The text below walks through data of US12331040B2 (Karyopharm Therapeutics Inc., priority 2013, dated 2025).

pIC50: −log10 of the molar value. Like-named read-outs stand apart in the source and are kept apart here. Where only a bound is given, the exact number is not on record here.

Assay in all cases: MTT cell proliferation assay
Format in all cases: cell-based
(In general: Tetrazolium assays rely on reduction of a dye to a coloured formazan, in cell work by metabolically active cells.)

One assay concerns Z138 cells. The note with it: Homo sapiens, Z-138, Z138 cells, approximately 64-72 hours incubation. As to the method:
(§1) The MTT cell proliferation assay was used to study the cytotoxic properties of the compounds. The assay was performed according to the method described by Roche Molecular Biochemicals, with minor modifications. The assay is based on the cleavage of the tetrazolium salt, MTT, in the presence of an electron-coupling reagent. The water-insoluble formazan salt produced must be solubilized in an additional step. Cells grown in a 96-well tissue culture plate were incubated with the MTT solution for approximately 4 hours. After this incubation period, a water-insoluble formazan dye formed. After solubilization, the formazan dye was quantitated using a scanning multi-well spectrophotometer (ELISA reader). […] The cells were seeded at 5,000-10,000 cells in each well of 96-well plate in 100 μL of fresh culture medium and were allowed to attach overnight. The stock solutions of the compounds were diluted in 100 μL cell culture medium to obtain eight concentrations of each test compound, ranging from 1 nM to 30 μM. […] All optical densities were measured at 490 nm using a Vmax Kinetic Microplate Reader (Molecular Devices). In most cases, the assay was performed in duplicate and the results were presented as a mean percent inhibition to the negative control±SE. The following formula was used to calculate the percent of inhibition: Inhibition (%)=(1−(ODo/OD))×100.
(§2) The compounds were tested against MS751, Z138 and 3T3 cells. The MS751 cell line is derived from a metastasis to lymph node of human cervix from a patient diagnosed with squamous cell carcinoma of the cervix. The Z138 cell line is a mature B-cell acute lymphoblastic leukemia cell line derived from a patient with chronic lymphocytic leukemia. 3T3 cells are standard fibroblast cells; they were originally isolated from Swiss mouse embryo tissue.

A further assay relates to 3T3 cells. The note with it: Mus musculus, NIH3T3, approximately 64-72 hours incubation. As to the method:
as §1, §2

The test system of the next assay is MS751 cells. To be noted: Homo sapiens, MS751, MS751 cells, approximately 64-72 hours incubation. As to the method: as §1, §2
Setting [1] is: read-out: MTT Assay IC50, Z-138.
[2] abbreviates: read-out: MTT Assay IC50, MS-751.
[3] abbreviates: read-out: MTT Assay IC50 MS-751.

Take `O=C(/C=C/c1cccnc1)NCc1cc2cc(-c3ccc(C(=O)N4CCC(F)(F)CC4)cn3)cc(-c3ccc(F)cc3)c2o1` [Compound 719, (E)-N-((5-(5-(4,4-difluoropiperidine-1-carbonyl)pyridin-2-yl)-7-(4-fluorophenyl)benzofuran-2-yl)methyl)-3-(pyridin-3-yl)acrylamide]: the pIC50 (in general, −log10 of the IC50, conventionally taken in molar units) with Z138 cells (setting [1]) was above 7.00; in the assay on 3T3 cells (read-out: MTT Assay IC50, 3T3), above 7.00; with MS751 cells (setting [2]), above 7.00.
For `Nc1ccc(/C=C/C(=O)NCc2cc3cc(-c4ccc(C(=O)N5CCC(F)(F)CC5)cn4)cc(OC(F)(F)F)c3o2)cn1` [Compound 663, (E)-3-(6-aminopyridin-3-yl)-N-((5-(5-(4,4-difluoropiperidine-1-carbonyl)pyridin-2-yl)-7-(trifluoromethoxy)benzofuran-2-yl)methyl)acrylamide], the negative logarithm of the IC50 (pIC50) with Z138 cells (setting [1]) was above 7.00; in the assay with 3T3 cells (read-out: MTT Assay IC50, 3T3), 5.30 to 7.00; with MS751 cells (setting [2]), above 7.00.
As for `Nc1ccc(/C=C/C(=O)NCc2cc3cc(-c4ccc(S(=O)(=O)N5CC[C@@H](F)C5)cc4)cc(Cl)c3o2)cn1` [Compound 527, (R,E)-3-(6-aminopyridin-3-yl)-N-((7-chloro-5-(4-(3-fluoropyrrolidin-1-ylsulfonyl)phenyl)benzofuran-2-yl)methyl)acrylamide], the negative-log IC50 (pIC50) with Z138 cells (read-out: MTT Assay IC50 Z-138) is 5.30 to 7.00; in the assay with 3T3 cells (read-out: MTT Assay IC50 3T3) it was below 5.00; in the assay with MS751 cells (setting [3]) it was 5.30 to 7.00.
With `Nc1ccc(/C=C/C(=O)NCc2cc3cc(-c4ccc(C(=O)N5CCOCC5)c(F)c4)cc(Cl)c3o2)cn1` [Compound 549, (E)-3-(6-aminopyridin-3-yl)-N-((7-chloro-5-(3-fluoro-4-(morpholine-4-carbonyl)phenyl)benzofuran-2-yl)methyl)acrylamide], the results for the pIC50 with Z138 cells (read-out: MTT Assay IC50 Z-138), in the assay with 3T3 cells (read-out: MTT Assay IC50 3T3) and in the assay with MS751 cells (setting [3]) were 5.30 to 7.00, below 5.00 and 5.30 to 7.00, respectively.
Consider `O=C(/C=C/c1cccnc1)NCc1cc2cc(-c3ccc(C(=O)N4CCC(F)(F)CC4)cc3F)cc(C(F)(F)F)c2o1` [Compound 684, (E)-N-((5-(4-(4,4-difluoropiperidine-1-carbonyl)-2-fluorophenyl)-7-(trifluoromethyl)benzofuran-2-yl)methyl)-3-(pyridin-3-yl)acrylamide], for which the pIC50 was 5.30 to 7.00 in the assay on Z138 cells (setting [1]); below 5.00 with 3T3 cells (read-out: MTT Assay IC50, 3T3); 5.30 to 7.00 with MS751 cells (setting [2]).
On to `Nc1ccc(/C=C/C(=O)NCc2cc3cc(-c4ccc(F)c(C(=O)N5CCOCC5)n4)cc(Cl)c3o2)cn1` [Compound 581, (E)-3-(6-aminopyridin-3-yl)-N-((7-chloro-5-(5-fluoro-6-(morpholine-4-carbonyl)pyridin-2-yl)benzofuran-2-yl)methyl)acrylamide], for which the negative logarithm of the IC50 (pIC50) with Z138 cells (read-out: MTT Assay IC50 Z-138) is above 7.00; in the assay with 3T3 cells (read-out: MTT Assay IC50 3T3) it was below 5.00; in the assay with MS751 cells (setting [3]) it was above 7.00.
As for `CO[C@@H]1CN(C(=O)c2ccc(-c3cc(C(F)(F)F)c4oc(CNC(=O)/C=C/c5ccc(N)nc5)cc4c3)nc2)C[C@H]1F` [Compound 628, (E)-3-(6-aminopyridin-3-yl)-N-((5-(5-(3-fluoro-4-methoxypyrrolidine-1-carbonyl)pyridin-2-yl)-7-(trifluoromethyl)benzofuran-2-yl)methyl)acrylamide], the pIC50 in the assay with Z138 cells (read-out: MTT Assay IC50 Z-138) was 5.30 to 7.00; with 3T3 cells (read-out: MTT Assay IC50 3T3) it was below 5.00; in the assay with MS751 cells (setting [3]), 5.30 to 7.00.
On to `Nc1ccc(/C=C/C(=O)NCc2cc3cc(-c4ccc(C(=O)N5CC6(COC6)C5)cn4)cc(C(F)(F)F)c3o2)cn1` [Compound 625, (E)-N-((5-(5-(2-oxa-6-azaspiro[3.3]heptane-6-carbonyl)pyridin-2-yl)-7-(trifluoromethyl)benzofuran-2-yl)methyl)-3-(6-aminopyridin-3-yl)acrylamide], for which the pIC50 with Z138 cells (read-out: MTT Assay IC50 Z-138) was above 7.00; in the assay with 3T3 cells (read-out: MTT Assay IC50 3T3) it was 5.30 to 7.00; in the assay on MS751 cells (setting [3]), above 7.00.
As to `Nc1ccc(/C=C/C(=O)NCc2cc3cc(-c4ccc(C(=O)N5CCC(F)(F)CC5)cc4)cc(-c4cc(Cl)cc(Cl)c4)c3o2)cn1` [Compound 700, (E)-3-(6-aminopyridin-3-yl)-N-((7-(3,5-dichlorophenyl)-5-(4-(4,4-difluoropiperidine-1-carbonyl)phenyl)benzofuran-2-yl)methyl)acrylamide], the pIC50 in the assay with Z138 cells (setting [1]) is above 7.00; in the assay on 3T3 cells (read-out: MTT Assay IC50, 3T3) it was 5.30 to 7.00; in the assay on MS751 cells (setting [2]), above 7.00.
For the compound `Nc1ccc(/C=C/C(=O)NCc2cc3cc(-c4ccc(S(=O)(=O)N5CCC(F)(F)CC5)cc4)cc(C(F)(F)F)c3o2)cn1` [Compound 679, (E)-3-(6-aminopyridin-3-yl)-N-((5-(4-((4,4-difluoropiperidin-1-yl)sulfonyl)phenyl)-7-(trifluoromethyl)benzofuran-2-yl)methyl)acrylamide], the pIC50 with Z138 cells (setting [1]) is 5.30 to 7.00; in the assay with 3T3 cells (read-out: MTT Assay IC50, 3T3), 5.30 to 7.00; in the assay with MS751 cells (setting [2]) it was 5.30 to 7.00.
`Nc1ccc(/C=C/C(=O)NCc2cc3cc(-c4ccc(C(=O)N5CCC(F)(F)CC5)cc4)cc(-c4cc(F)cc(F)c4)c3o2)cn1` [Compound 734, (E)-3-(6-aminopyridin-3-yl)-N-((7-(3,5-difluorophenyl)-5-(4-(4,4-difluoropiperidine-1-carbonyl)phenyl)benzofuran-2-yl)methyl)acrylamide]: the pIC50 in the assay with Z138 cells (setting [1]) was above 7.00; in the assay on 3T3 cells (read-out: MTT Assay IC50, 3T3), 5.30 to 7.00; with MS751 cells (setting [2]), above 7.00.
Take `Nc1ccc(/C=C/C(=O)NCc2cc3cc(-c4ccc(C(=O)C(=O)N5CCOCC5)cc4)cc(Cl)c3o2)cn1` [Compound 545, (E)-3-(6-Aminopyridin-3-yl)-N-((7-chloro-5-(4-(2-morpholino-2-oxoacetyl)phenyl)benzofuran-2-yl)methyl)acrylamide]: the negative logarithm of the IC50 (pIC50) was 5.30 to 7.00 with Z138 cells (read-out: MTT Assay IC50 Z-138), 5.00 to 5.30 with 3T3 cells (read-out: MTT Assay IC50 3T3) and 5.30 to 7.00 with MS751 cells (setting [3]).
Turning to `Nc1ccc(/C=C/C(=O)NCc2cc3cc(-c4ccc(C(=O)N5CCNCC5)cn4)cc(Cl)c3o2)cn1` [Compound 589, (E)-3-(6-aminopyridin-3-yl)-N-((7-chloro-5-(5-(piperazine-1-carbonyl)pyridin-2-yl)benzofuran-2-yl)methyl)acrylamide], the pIC50 with Z138 cells (read-out: MTT Assay IC50 Z-138) was above 7.00; with 3T3 cells (read-out: MTT Assay IC50 3T3), below 5.00; in the assay with MS751 cells (setting [3]) it was 5.30 to 7.00.
In the case of `O=C(/C=C/c1cccnc1)NCc1cc2cc(-c3ccc(C(=O)N4CCC(F)(F)CC4)cc3)cc(-c3cccnc3)c2o1` [Compound 725, (E)-N-((5-(4-(4,4-difluoropiperidine-1-carbonyl)phenyl)-7-(pyridin-3-yl)benzofuran-2-yl)methyl)-3-(pyridin-3-yl)acrylamide], the pIC50 with Z138 cells (setting [1]) was above 7.00; with 3T3 cells (read-out: MTT Assay IC50, 3T3), above 7.00; with MS751 cells (setting [2]), above 7.00.
Regarding `CN1Cc2cc(-c3cc(Cl)c4oc(CNC(=O)/C=C/c5ccc(N)nc5)cc4c3)ccc2C1=O` [Compound 513, (E)-3-(6-aminopyridin-3-yl)-N-((7-chloro-5-(2-methyl-1-oxoisoindolin-5-yl)benzofuran-2-yl)methyl)acrylamide], the negative logarithm of the IC50 (pIC50) was 5.30 to 7.00 in the assay with Z138 cells (read-out: MTT Assay IC50 Z-138), below 5.00 in the assay with 3T3 cells (read-out: MTT Assay IC50 3T3) and below 5.00 with MS751 cells (setting [3]).
As for `Nc1ccc(/C=C/C(=O)NCc2cc3cc(-c4ccc(OC(=O)N5CCOCC5)cc4)cc(Cl)c3o2)cn1` [Compound 556, (E)-4-(2-((3-(6-aminopyridin-3-yl)acrylamido)methyl)-7-chlorobenzofuran-5-yl)phenyl morpholine-4-carboxylate], the pIC50 is 5.30 to 7.00 in the assay with Z138 cells (read-out: MTT Assay IC50 Z-138), below 5.00 with 3T3 cells (read-out: MTT Assay IC50 3T3) and 5.30 to 7.00 with MS751 cells (setting [3]).
